Test results published in patent US20240382474A1, “ENPP1 MODULATORS AND USES THEREOF” (Vir Biotechnology, Inc., priority 2021, published 2024).

molecular target: T1, human ENPP1 enzymatic domain (Homo sapiens, UniProt P22413); experiment: ENPP1 Enzymatic Inhibition Assay (2′3′-cGAMP substrate, AMP-Glo luminescence); assay type: biochemical; details: 1 nM ENPP1, 20 uM 2′3′-cGAMP, 30 minutes at 37° C.
T1 construct: recombinant protein containing the human ENPP1 enzymatic domain; purchased Viva Biotech
T1 sequence (P22413 191-591 limits assumed): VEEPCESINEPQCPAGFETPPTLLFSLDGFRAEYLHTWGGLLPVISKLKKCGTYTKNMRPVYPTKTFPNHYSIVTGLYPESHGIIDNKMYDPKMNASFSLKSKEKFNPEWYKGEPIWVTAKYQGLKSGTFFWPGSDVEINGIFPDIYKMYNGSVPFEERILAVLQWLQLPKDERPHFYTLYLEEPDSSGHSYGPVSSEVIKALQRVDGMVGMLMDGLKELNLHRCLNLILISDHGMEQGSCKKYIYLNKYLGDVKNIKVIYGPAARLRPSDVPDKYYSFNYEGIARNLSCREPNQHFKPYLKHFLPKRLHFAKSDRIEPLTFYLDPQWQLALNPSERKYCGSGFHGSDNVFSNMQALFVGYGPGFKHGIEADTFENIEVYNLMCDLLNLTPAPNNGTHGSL
Experimental: The inhibition of ENPP1's phosphodiesterase activity were tested in a purified enzymatic assay using 2′3′-cyclic GAMP as a substrate which allowed for the release of cleaved AMP to be monitored using a luminescent assay.
Putative inhibitors were diluted in assay buffer (50 mM Tris pH 8.0, 250 mM NaCl, 0.5 mM CaCl2), 1 uM ZnCl2, 1% DMSO) and pre-incubated for 15 minutes at 37° C. with recombinant protein containing the human ENPP1 enzymatic domain (Viva Biotech). The enzymatic reaction was initiated upon addition of the 2′3′-cGAMP substrate. The final reaction concentrations were 1 nM ENPP1 and 20 uM 2′3′-cGAMP substrate in a 25 uL volume. Inhibitor concentrations ranged from 10 uM to 0.056 nM. The reaction was incubated for 30 minutes at 37° C.
After reacting for 30 minutes, the amount of AMP generated from the cleavage of 2′3′-cGAMP was determined using the Promega AMP-Glo method according to the manufacturer's protocol. First, AMP-Glo reagent 1 was added and incubated with the reaction mix for 1 hour at room temperature. Second, AMP Detection solution was added and the mixture was incubated for an additional hour. The luminescence of the mixture was read on a Perkin Elmer Ensight plate reader.
The maximum and minimum levels of ENPP1 activity were established using no inhibitor and no enzyme controls, respectively. The activity observed using ENPP1 inhibitors was quantified as the percent of activity relative to these controls. IC50 values were calculated using CDD Vault by fitting a sigmoidal variable slope nonlinear regression model to the data.

Row | Compound | IC50
1 | CN[S@](=N)(=O)c1ccc(Oc2ccnc3cc(OC)ccc23)cc1 [Compound 2, (S)-4-((7-methoxyquinolin-4-yl)oxy)-N-methylbenzenesulfonimidamide] | < 10 nM
2 | COc1ccc2c(Oc3ccc([S@](=N)(=O)NCCO)cc3)ccnc2c1 [Compound 3, (R)-N-(2-hydroxyethyl)-4-((7-methoxyquinolin-4-yl)oxy)benzenesulfonimidamide] | 10 to 100 nM
3 | COc1ccc2c(Oc3ccc([S@@](=N)(=O)NCCO)cc3)ccnc2c1 [Compound 4, (S)-N-(2-hydroxyethyl)-4-((7-methoxyquinolin-4-yl)oxy)benzenesulfonimidamide] | < 10 nM
4 | COc1ccc2c(Oc3ccc([S@](=N)(=O)N[C@@H](C)CO)cc3)ccnc2c1 [Compound 5, (R)-N-((S)-1-hydroxypropan-2-yl)-4-((7-methoxyquinolin-4-yl)oxy)benzenesulfonimidamide] | 10 to 100 nM
5 | COc1ccc2c(Oc3ccc([S@@](=N)(=O)N[C@@H](C)CO)cc3)ccnc2c1 [Compound 6, (S)-N-((S)-1-hydroxypropan-2-yl)-4-((7-methoxyquinolin-4-yl)oxy)benzenesulfonimidamide] | < 10 nM
6 | COc1ccc2c(Oc3ccc([S@](=N)(=O)NC[C@H](C)O)cc3)ccnc2c1 [Compound 7, (R)-N-((S)-2-hydroxypropyl)-4-((7-methoxyquinolin-4-yl)oxy)benzenesulfonimidamide] | 10 to 100 nM
7 | COc1ccc2c(Oc3ccc([S@@](=N)(=O)NC[C@H](C)O)cc3)ccnc2c1 [Compound 8, (S)-N-((S)-2-hydroxypropyl)-4-((7-methoxyquinolin-4-yl)oxy)benzenesulfonimidamide] | < 10 nM
8 | COc1ccc2c(Oc3ccc([S@](=N)(=O)NCC(C)(C)O)cc3)ccnc2c1 [Compound 9, (R)-N-(2-hydroxy-2-methylpropyl)-4-((7-methoxyquinolin-4-yl)oxy)benzenesulfonimidamide] | 10 to 100 nM
9 | COc1ccc2c(Oc3ccc([S@@](=N)(=O)NCC(C)(C)O)cc3)ccnc2c1 [Compound 10, (S)-N-(2-hydroxy-2-methylpropyl)-4-((7-methoxyquinolin-4-yl)oxy)benzenesulfonimidamide] | < 10 nM
10 | COc1ccc2c(Oc3ccc([S@](=N)(=O)N[C@H](C)CO)cc3)ccnc2c1 [Compound 11, (R)-N-((R)-1-hydroxypropan-2-yl)-4-((7-methoxyquinolin-4-yl)oxy)benzenesulfonimidamide] | 10 to 100 nM
11 | COc1ccc2c(Oc3ccc([S@@](=N)(=O)N[C@H](C)CO)cc3)ccnc2c1 [Compound 12, (S)-N-((R)-1-hydroxypropan-2-yl)-4-((7-methoxyquinolin-4-yl)oxy)benzenesulfonimidamide] | < 10 nM
12 | COc1ccc2c(Oc3ccc([S@](=N)(=O)NCC4CC4)cc3)ccnc2c1 [Compound 13, (R)-N-(cyclopropylmethyl)-4-((7-methoxyquinolin-4-yl)oxy)benzenesulfonimidamide] | > 100 nM
13 | COc1ccc2c(Oc3ccc([S@@](=N)(=O)NCC4CC4)cc3)ccnc2c1 [Compound 14, (S)-N-(cyclopropylmethyl)-4-((7-methoxyquinolin-4-yl)oxy)benzenesulfonimidamide] | < 10 nM
14 | CN[S@@](=N)(=O)c1ccc(Nc2ncnc3cc(OC)ccc23)cc1 [Compound 15, (R)-4-((7-methoxyquinazolin-4-yl)amino)-N-methylbenzenesulfonimidamide] | 10 to 100 nM
15 | CN[S@](=N)(=O)c1ccc(Nc2ncnc3cc(OC)ccc23)cc1 [Compound 16, (S)-4-((7-methoxyquinazolin-4-yl)amino)-N-methylbenzenesulfonimidamide] | < 10 nM
16 | CN[S@@](=N)(=O)c1ccc(Nc2ccnc3cc(OC)ccc23)cc1 [Compound 17, (R)-4-((7-methoxyquinolin-4-yl)amino)-N-methylbenzenesulfonimidamide] | < 10 nM
17 | CN[S@](=N)(=O)c1ccc(Nc2ccnc3cc(OC)ccc23)cc1 [Compound 18, (S)-4-((7-methoxyquinolin-4-yl)amino)-N-methylbenzenesulfonimidamide] | < 10 nM

Row | Compound | IC50
18 | COc1ccc2c(Nc3ccc([S@](=N)(=O)NCC4CC4)cc3)ccnc2c1 [Compound 19, (R)-N-(cyclopropylmethyl)-4-((7-methoxyquinolin-4-yl)amino)benzenesulfonimidamide] | < 10 nM
19 | COc1ccc2c(Nc3ccc([S@@](=N)(=O)NCC4CC4)cc3)ccnc2c1 [Compound 20, (S)-N-(cyclopropylmethyl)-4-((7-methoxyquinolin-4-yl)amino)benzenesulfonimidamide] | < 10 nM
20 | COc1ccc2c(Nc3ccc([S@@](=N)(=O)NCC4CC4)cc3)c(C#N)cnc2c1 [Compound 21, (S)-4-((3-cyano-7-methoxyquinolin-4-yl)amino)-N-(cyclopropylmethyl)benzenesulfonimidamide] | 10 to 100 nM
21 | N=[S@](=O)(NCC1CC1)c1ccc(Nc2ccnc3cc(OC(F)F)ccc23)cc1 [Compound 22, (S)-N-(cyclopropylmethyl)-4-((7-(difluoromethoxy)quinolin-4-yl)amino)benzenesulfonimidamide] | < 10 nM
22 | COc1ccc2c(Oc3ccc([S@](=N)(=O)NC[C@@H](C)O)cc3)ccnc2c1 [Compound 25, (R)-N-((R)-2-hydroxypropyl)-4-((7-methoxyquinolin-4-yl)oxy)benzenesulfonimidamide] | < 10 nM
23 | COc1ccc2c(Oc3ccc([S@](=N)(=O)N[C@H](C)c4ccnn4C)cc3)ccnc2c1 [Compound 27, (R)-4-((7-methoxyquinolin-4-yl)oxy)-N-((R)-1-(1-methyl-1H-pyrazol-5-yl)ethyl)benzenesulfonimidamide] | 10 to 100 nM
24 | COc1ccc2c(Oc3ccc([S@@](=N)(=O)N[C@H](C)c4ccnn4C)cc3)ccnc2c1 [Compound 28, (S)-4-((7-methoxyquinolin-4-yl)oxy)-N-((R)-1-(1-methyl-1 H-pyrazol-5-yl)ethyl)benzenesulfonimidamide] | < 10 nM
25 | COc1ccc2c(Oc3ccc([S@](=N)(=O)NC(C)c4ccn(C)n4)cc3)ccnc2c1 (stereo partly drawn) [Compound 29, (R)-4-((7-methoxyquinolin-4-yl)oxy)-N-(1-(1-methyl-1H-pyrazol-3-yl)ethyl)benzenesulfonimidamide] | < 10 nM
26 | COc1ccc2c(Oc3ccc([S@@](=N)(=O)NC(C)c4ccn(C)n4)cc3)ccnc2c1 (stereo partly drawn) [Compound 30, (S)-4-((7-methoxyquinolin-4-yl)oxy)-N-(1-(1-methyl-1H-pyrazol-3-yl)ethyl)benzenesulfonimidamide] | < 10 nM
27 | COc1ccc2c(Oc3ccc([S@](=N)(=O)NC[C@@H](O)CO)cc3)ccnc2c1 [Compound 31, (R)-N-((R)-2,3-dihydroxypropyl)-4-((7-methoxyquinolin-4-yl)oxy)benzenesulfonimidamide] | 10 to 100 nM
28 | COc1ccc2c(Oc3ccc([S@@](=N)(=O)NC[C@@H](O)CO)cc3)ccnc2c1 [Compound 32, (S)-N-((R)-2,3-dihydroxypropyl)-4-((7-methoxyquinolin-4-yl)oxy)benzenesulfonimidamide] | < 10 nM
29 | COc1ccc2c(Oc3ccc([S@](=N)(=O)NC[C@H](O)CO)cc3)ccnc2c1 [Compound 33, (R)-N-((S)-2,3-dihydroxypropyl)-4-((7-methoxyquinolin-4-yl)oxy)benzenesulfonimidamide] | 10 to 100 nM
30 | COc1ccc2c(Oc3ccc([S@@](=N)(=O)NC[C@H](O)CO)cc3)ccnc2c1 [Compound 34, (S)-N-((S)-2,3-dihydroxypropyl)-4-((7-methoxyquinolin-4-yl)oxy)benzenesulfonimidamide] | < 10 nM
31 | COc1ccc2c(Nc3ccc([S@](=N)(=O)N[C@H](C)CO)cc3)ccnc2c1 [Compound 35, (R)-N-((R)-1-hydroxypropan-2-yl)-4-((7-methoxyquinolin-4-yl)amino)benzenesulfonimidamide] | < 10 nM
32 | COc1ccc2c(Nc3ccc([S@@](=N)(=O)N[C@H](C)CO)cc3)ccnc2c1 [Compound 36, (S)-N-((R)-1-hydroxypropan-2-yl)-4-((7-methoxyquinolin-4-yl)amino)benzenesulfonimidamide] | < 10 nM
33 | COc1ccc2c(Nc3ccc([S@](=N)(=O)NC[C@H](C)O)cc3)ccnc2c1 [Compound 37, (R)-N-((S)-2-hydroxypropyl)-4-((7-methoxyquinolin-4-yl)amino)benzenesulfonimidamide] | < 10 nM
34 | COc1ccc2c(Nc3ccc([S@@](=N)(=O)NC[C@H](C)O)cc3)ccnc2c1 [Compound 38, (S)-N-((S)-2-hydroxypropyl)-4-((7-methoxyquinolin-4-yl)amino)benzenesulfonimidamide] | < 10 nM
